Source: paper PMC11285368, “Chasing Red Herrings: Palladium Metal Salt Impurities Feigning KRAS Activity in Biochemical Assays” (Journal of Medicinal Chemistry, 2024)

Tests used:
Format in all cases: biochemical
[1] = target: LSD1 (Homo sapiens, UniProt O60341); experiment: LSD1 DELFIA; conditions: read-out: Target #1 IC50
Procedure: (§1) Metal salt solutions for the metal ion interference set (MIIS) were prepared as 10 mM stock solutions in DMSO (see Table 3). All metal salts used have been purchased at highest industrial grade.

[2] = target: T1, beta-Catenin (Homo sapiens, UniProt P35222); experiment: beta-Catenin TR-FRET; conditions: read-out: Target #1 IC50
T1 sequence (P35222 1-781): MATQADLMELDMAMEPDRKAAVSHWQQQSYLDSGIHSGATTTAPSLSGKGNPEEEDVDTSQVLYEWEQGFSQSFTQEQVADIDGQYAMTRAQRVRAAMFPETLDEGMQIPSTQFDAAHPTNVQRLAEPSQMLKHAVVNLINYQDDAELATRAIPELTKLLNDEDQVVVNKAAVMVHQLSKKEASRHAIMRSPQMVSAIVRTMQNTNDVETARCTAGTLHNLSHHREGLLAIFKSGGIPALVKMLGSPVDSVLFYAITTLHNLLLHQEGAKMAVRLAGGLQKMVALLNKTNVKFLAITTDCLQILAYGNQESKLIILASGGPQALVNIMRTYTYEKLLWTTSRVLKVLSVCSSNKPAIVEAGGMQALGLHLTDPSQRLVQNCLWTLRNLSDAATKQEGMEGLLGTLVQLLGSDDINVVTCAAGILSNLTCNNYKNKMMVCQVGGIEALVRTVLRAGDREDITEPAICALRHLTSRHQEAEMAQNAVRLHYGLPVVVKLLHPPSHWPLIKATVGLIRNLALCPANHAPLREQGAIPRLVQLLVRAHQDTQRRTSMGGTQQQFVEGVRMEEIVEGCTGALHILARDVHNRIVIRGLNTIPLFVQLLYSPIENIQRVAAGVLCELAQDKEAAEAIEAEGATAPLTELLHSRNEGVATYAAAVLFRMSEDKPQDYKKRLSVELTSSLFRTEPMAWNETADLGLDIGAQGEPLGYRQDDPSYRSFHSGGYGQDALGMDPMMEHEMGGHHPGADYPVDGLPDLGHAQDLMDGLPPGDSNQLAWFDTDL
Procedure: as §1

[3] = tested on: off-target; experiment: FKBP51 AlphaScreen, Target #2
Procedure: as §1

[4] = target: MDM2 (Homo sapiens, UniProt Q00987); experiment: MDM2 AlphaScreen, Target #1
Procedure: as §1

[5] = tested on: off target; experiment: KRAS AlphaScreen, Target #3
Procedure: as §1

[6] = target: T2, NSD3 (Homo sapiens, UniProt Q9BZ95); experiment: NSD3 TR-FRET; conditions: read-out: Target #1 IC50
T2 sequence (Q9BZ95 1-1437): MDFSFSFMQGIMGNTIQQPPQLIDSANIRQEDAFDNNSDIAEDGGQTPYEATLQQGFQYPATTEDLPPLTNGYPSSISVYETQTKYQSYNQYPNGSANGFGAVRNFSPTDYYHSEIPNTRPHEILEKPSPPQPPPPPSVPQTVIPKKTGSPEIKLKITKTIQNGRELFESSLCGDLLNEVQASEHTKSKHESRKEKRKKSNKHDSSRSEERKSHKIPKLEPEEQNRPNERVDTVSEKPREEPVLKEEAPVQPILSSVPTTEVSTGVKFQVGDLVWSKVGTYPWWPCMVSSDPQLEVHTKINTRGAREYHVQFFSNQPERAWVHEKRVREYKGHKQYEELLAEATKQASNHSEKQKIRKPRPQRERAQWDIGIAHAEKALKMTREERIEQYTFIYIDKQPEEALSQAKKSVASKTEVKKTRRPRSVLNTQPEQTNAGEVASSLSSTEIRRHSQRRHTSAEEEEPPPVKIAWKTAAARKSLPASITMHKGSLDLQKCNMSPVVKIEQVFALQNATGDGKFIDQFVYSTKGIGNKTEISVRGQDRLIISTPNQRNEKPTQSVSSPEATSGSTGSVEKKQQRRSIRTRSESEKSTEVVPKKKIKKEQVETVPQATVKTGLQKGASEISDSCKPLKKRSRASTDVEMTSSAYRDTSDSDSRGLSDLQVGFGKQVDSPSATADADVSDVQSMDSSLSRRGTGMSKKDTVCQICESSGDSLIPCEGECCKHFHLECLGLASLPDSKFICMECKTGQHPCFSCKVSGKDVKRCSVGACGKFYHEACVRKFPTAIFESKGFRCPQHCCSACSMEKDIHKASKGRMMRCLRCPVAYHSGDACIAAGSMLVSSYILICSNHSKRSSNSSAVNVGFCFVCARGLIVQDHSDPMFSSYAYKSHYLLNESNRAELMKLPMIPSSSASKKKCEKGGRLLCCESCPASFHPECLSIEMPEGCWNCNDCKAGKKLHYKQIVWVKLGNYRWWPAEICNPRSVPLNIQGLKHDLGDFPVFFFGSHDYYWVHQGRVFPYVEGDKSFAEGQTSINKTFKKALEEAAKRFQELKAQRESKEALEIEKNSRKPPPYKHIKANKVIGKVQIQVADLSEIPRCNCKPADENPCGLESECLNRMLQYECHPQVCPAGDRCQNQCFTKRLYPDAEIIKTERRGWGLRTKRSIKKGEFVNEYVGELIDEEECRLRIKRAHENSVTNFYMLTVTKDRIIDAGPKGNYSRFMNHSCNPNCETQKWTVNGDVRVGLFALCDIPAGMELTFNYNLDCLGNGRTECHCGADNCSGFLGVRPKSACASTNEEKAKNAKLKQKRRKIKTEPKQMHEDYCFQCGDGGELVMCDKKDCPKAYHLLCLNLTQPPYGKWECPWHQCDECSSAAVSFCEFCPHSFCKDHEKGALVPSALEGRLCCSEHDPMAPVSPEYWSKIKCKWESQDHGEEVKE
Procedure: as §1

[7] = tested on: off target (ext.); experiment: WRN ADP-Glo, Target #4
Procedure: as §1

[8] = target: EGFR (Homo sapiens, UniProt P00533); experiment: EGFR MALDI; conditions: read-out: Target #1 IC50
Procedure: as §1

MDM2, sequence (Q00987 whole entry, species assumed): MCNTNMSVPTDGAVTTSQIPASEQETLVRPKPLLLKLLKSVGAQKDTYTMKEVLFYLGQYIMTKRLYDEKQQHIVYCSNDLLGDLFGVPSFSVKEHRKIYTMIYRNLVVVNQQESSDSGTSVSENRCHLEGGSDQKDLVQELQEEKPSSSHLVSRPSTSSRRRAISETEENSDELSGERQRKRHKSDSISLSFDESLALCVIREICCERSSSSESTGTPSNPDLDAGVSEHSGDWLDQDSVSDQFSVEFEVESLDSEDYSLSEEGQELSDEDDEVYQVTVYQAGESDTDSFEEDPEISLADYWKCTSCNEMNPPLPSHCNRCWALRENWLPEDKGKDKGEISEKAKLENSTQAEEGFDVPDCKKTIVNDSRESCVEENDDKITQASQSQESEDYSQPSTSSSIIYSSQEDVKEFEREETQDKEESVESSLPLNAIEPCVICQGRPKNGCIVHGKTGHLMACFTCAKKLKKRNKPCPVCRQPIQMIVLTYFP
EGFR, sequence (P00533 25-1210, species assumed): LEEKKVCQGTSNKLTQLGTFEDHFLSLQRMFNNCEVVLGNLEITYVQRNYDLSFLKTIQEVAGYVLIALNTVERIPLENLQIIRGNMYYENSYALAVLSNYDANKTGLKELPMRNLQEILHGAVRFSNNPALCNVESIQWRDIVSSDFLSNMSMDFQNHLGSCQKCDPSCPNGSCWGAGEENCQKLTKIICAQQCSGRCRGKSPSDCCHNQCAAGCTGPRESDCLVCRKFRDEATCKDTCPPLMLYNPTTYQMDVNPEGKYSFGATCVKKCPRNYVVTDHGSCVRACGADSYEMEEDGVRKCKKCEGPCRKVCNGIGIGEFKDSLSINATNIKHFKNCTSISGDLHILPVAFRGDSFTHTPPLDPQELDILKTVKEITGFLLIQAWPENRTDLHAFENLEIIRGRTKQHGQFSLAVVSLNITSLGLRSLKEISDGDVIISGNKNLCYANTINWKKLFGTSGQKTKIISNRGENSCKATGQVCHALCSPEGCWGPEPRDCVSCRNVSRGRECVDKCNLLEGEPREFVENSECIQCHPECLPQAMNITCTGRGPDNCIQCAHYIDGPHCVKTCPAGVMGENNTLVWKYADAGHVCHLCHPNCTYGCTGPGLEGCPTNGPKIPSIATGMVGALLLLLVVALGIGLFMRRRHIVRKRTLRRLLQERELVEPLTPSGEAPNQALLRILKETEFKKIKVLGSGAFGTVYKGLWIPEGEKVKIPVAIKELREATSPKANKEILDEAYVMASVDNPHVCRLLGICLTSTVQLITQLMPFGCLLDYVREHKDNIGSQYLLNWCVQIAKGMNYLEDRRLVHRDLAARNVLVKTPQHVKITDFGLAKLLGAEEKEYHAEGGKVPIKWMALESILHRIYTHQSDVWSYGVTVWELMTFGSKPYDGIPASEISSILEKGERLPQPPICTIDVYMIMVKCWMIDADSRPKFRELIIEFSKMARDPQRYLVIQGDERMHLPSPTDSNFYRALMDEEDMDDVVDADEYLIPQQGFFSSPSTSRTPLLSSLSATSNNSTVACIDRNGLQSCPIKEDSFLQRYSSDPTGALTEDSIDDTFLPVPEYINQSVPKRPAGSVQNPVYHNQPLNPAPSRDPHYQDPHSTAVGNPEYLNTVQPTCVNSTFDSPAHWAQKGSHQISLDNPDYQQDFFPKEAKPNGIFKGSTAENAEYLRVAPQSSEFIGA

Row | IC50 [1] [µM] | IC50 [2] [µM] | IC50 [3] [µM] | IC50 [4] [µM] | IC50 [5] [µM] | IC50 [6] [µM] | IC50 [7] [µM] | IC50 [8] [µM] | Structure (SMILES)
1 | > 10 | > 10 | > 10 | > 10 | > 10 | > 10 | > 10 | > 10 | [Cl][Fe][Cl] [FeCl2, Iron(II) chloride]
2 | > 10 | > 10 | > 10 | > 10 | > 10 | > 10 | > 10 | > 10 | [Cl][Fe]([Cl])[Cl] [FeCl3, Iron(III) chloride]
3 | > 10 | > 10 | > 10 | > 10 | > 10 | > 10 | > 10 | > 10 | [Cl-].[Cl-].[Mg+2] [MgCl2, Magnesium chloride]
4 | > 10 | > 10 | > 10 | > 10 | > 10 | > 10 | > 10 | > 10 | [Cl][Mn][Cl] [MnCl2, Manganese(II) chloride]
5 | > 10 | > 10 | > 10 | > 10 | > 10 | > 10 | > 10 | > 10 | [Cl-].[Cl-].[Zn+2] [ZnCl2, Zinc(II) chloride]

Second part, the compound before the results:

Row | Structure (SMILES) | IC50 [1] [µM] | IC50 [2] [µM] | IC50 [3] [µM] | IC50 [4] [µM] | IC50 [5] [µM] | IC50 [6] [µM] | IC50 [7] [µM] | IC50 [8] [µM]
6 | CC(=O)[O-].[Ag+] [Ag (CH 3COO), Silver acetate] | 1 to 10 | < 1 | > 10 | > 10 | > 10 | 1 to 10 | > 10 | > 10
7 | O=[N+]([O-])[O-].O=[N+]([O-])[O-].O=[N+]([O-])[O-].[Al+3] [Al(NO3)3, Aluminum nitrate] | 1 to 10 | > 10 | 1 to 10 | > 10 | > 10 | > 10 | > 10 | > 10
8 | [Cl][Au]([Cl])[Cl] [AuCl3, Gold(III) chloride] | 1 to 10 | < 1 | > 10 | > 10 | > 10 | < 1 | > 10 | > 10
9 | [Cl-].[Cl-].[Co+2] [CoCl2, Cobalt(II) chloride] | – | > 10 | > 10 | > 10 | > 10 | > 10 | > 10 | > 10
10 | [Cl][Cu][Cl] [CuCl2, Copper(II) chloride] | > 10 | > 10 | > 10 | > 10 | > 10 | > 10 | > 10 | > 10
11 | [Cl][Ni][Cl] [NiCl2, Nickel(II) chloride] | 1 to 10 | > 10 | > 10 | > 10 | > 10 | > 10 | > 10 | > 10
12 | [Cl][Pd][Cl] [PdCl2, Palladium(II) chloride] | 1 to 10 | > 10 | > 10 | > 10 | > 10 | > 10 | > 10 | > 10
13 | [Cl][Sn][Cl] [SnCl2, Tin(II) chloride] | > 10 | > 10 | > 10 | > 10 | > 10 | < 1 | > 10 | > 10
